Test results from patent publication US20200188469A1, “COMPOUNDS AND METHODS FOR INHIBITING CDK5 ALLEVIATE CARDIAC PHENOTYPES IN TIMOTHY SYNDROME AND RELATED CONDITIONS” (priority 2017, published 2020).
“Also recorded” adds a separate entry of the source.

Legend:
[1] = tested on: Timothy syndrome cardiomyocytes; experiment: Contraction assay with Matlab-based analysis and calcium imaging (Roscovitine analog and CDK inhibitor tests); type: cell-based, human; details: two rounds: cardiomyocyte clusters 24 hours, intact monolayer 2 hours after treatment; 5 μM, (R)-CR8 1 or 2 μM
Experimental: Two rounds of chemical tests were conducted to test the compounds. The first round of chemical test was conducted using Timothy syndrome cardiomyocyte clusters isolated from the monolayer cardiomyocytes to screen the compounds efficiently and to identify the positive compounds that could increase the spontaneous beating rate and decrease the contraction irregularity of the Timothy syndrome cardiomyocyte clusters (FIG. 1C).
The working solution of each compound was made by diluting the stock solution in our cardiomyocyte culture media to a final concentration of 5 μM except for (R)-CR8, which was diluted to a final concentration of 1 or 2 μM. The contraction analysis was performed as reported previously (Yazawa et al., 2011). The movies were taken before the treatment, and 24 hours after the treatment of each compound from the Timothy syndrome cardiomyocyte clusters isolated from the monolayer cardiomyocytes for the first round of test. The movies were taken before the treatment, and 2 hours after the treatment of each positive compound on the intact monolayer Timothy syndrome cardiomyocytes for the second round of test. The contraction rate and the irregularity of each sample before and after treatment were compared using paired Student t-test.

CDK5/p35 = target: T1, CDK5/p35 (Homo sapiens, UniProt Q00535); experiment: In vitro kinase assay (ADP-Glo luminescence); type: biochemical; details: wild-type II-III loop or C-term of Cav1.2 as substrates
T1 construct: purchased Promega V3271
Source text: To determine whether CDK5 phosphorylates Cav1.2, an in vitro kinase assay was designed. The wild-type II-III loop or the C-term of Cav1.2 was used as the substrates in this assay. Mutant II-III loop and mutant C-term constructs were generated with substitutions of serine/threonine to glycine or alanine in all CDK5 consensus sequences as negative controls. The phosphorylation of the substrates by CDK5 consumes ATP and produces ADP, which is then converted into luminescence by detection reagents in the assay (FIG. 3D). The luminescence signal was reduced when the CDK5 inhibitor, PHA-793887 was added to the reactions using wild-type II-III loop or C-term as the substrates. […]
To prepare the substrates, the HEK 293T cells were transfected with the plasmid containing either the FLAG-tagged wild-type II-III loop or mutant II-III loop or wild-type C-terminus or mutant C-terminus using Lipofectamine 2000 (Thermo Fisher Scientific) following the manufacturer's protocol 24 hours after plating. […] A series of samples for a standard curve were prepared based on the manufacturer's instructions to determine the ATP-ADP conversion from the luminescence signals in every round of experiment. […] 20 ul of the samples from each tube was then transferred into a 96 well microplate and the luminescence was measured with the GloMax® 96 Microplate Luminometer (Promega).

[2] = tested on: Cav1.2 with Timothy syndrome mutation; details: heterologous over-expression system; cited from earlier work
[3] = tested on: TS cardiomyocytes derived from hiPSCs; details: high dose; cited from earlier work
Cav1.2 channels = experiment: Voltage-clamp recordings of Ba2+ currents (voltage-dependent inactivation of Cav1.2); type: cell-based, human; details: TS cardiomyocytes with CDK5 DN expression; 5 μM, 3 min
Experimental: The Timothy syndrome and control iPSCs were differentiated into cardiomyocytes following a protocol reported previously (Song et al., 2015) and infected with the lentiviruses at day 19-21 or day 25-27 after cardiac differentiation. The cardiomyocytes were dissociated into single cells for whole-cell patch-clamp recordings at day 31. Whole-cell patch-clamp recordings of iPSC-derived cardiomyocytes were conducted using a MultiClap 700B patch-clamp amplifier (Molecular Devices) and an inverted microscope equipped with differential interface optics (Nikon, Ti-U). The glass pipettes were prepared using borosilicate glass (Sutter Instrument, BF150-110-10) using a micropipette puller (Sutter Instrument, Model P-97). Voltage-clamp measurements were conducted using an extracellular solution consisting of 5 mM BaCl2, 160 mM TEA and 10 mM HEPES (pH7.4 at 25° C.) and a pipette solution of 125 mM CsCl, 0.1 mM CaCl2, 10 mM EGTA, 1 mM MgCl2, 4 mM MgATP and 10 mM HEPES (pH 7.4 with CsOH at 25° C.). Two pulse protocols were used. One protocol was that cells were held at −90 mV and then depolarized to −10 mV for 400 ms at a rate of 0.1 Hz for the Ba^2+ current recordings. […] Recorded action potentials were analyzed using Clampfit 10.4 (Axon Instruments).

[4] = withdrawn from US market in 2000; cited from earlier work

T1 sequence (Q00535 whole entry): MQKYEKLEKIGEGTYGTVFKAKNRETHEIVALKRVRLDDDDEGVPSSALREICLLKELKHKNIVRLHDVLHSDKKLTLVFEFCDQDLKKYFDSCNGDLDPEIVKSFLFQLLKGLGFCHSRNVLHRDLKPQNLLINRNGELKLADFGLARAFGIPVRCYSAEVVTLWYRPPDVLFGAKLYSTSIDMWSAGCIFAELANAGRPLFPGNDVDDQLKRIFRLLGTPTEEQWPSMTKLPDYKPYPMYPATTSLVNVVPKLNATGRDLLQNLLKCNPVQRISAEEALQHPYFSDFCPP
T1 sequence (Q15078 whole entry partner): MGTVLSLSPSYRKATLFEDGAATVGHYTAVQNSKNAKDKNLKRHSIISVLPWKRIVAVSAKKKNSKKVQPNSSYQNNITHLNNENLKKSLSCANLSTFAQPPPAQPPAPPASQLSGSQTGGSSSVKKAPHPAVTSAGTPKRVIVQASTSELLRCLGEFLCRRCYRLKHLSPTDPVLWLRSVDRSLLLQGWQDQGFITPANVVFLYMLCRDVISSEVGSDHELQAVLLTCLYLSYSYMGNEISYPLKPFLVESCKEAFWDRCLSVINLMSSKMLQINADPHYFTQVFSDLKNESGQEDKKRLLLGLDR

Compound: CC[C@H](CO)Nc1nc(NCc2ccc(-c3ccccn3)cc2)c2ncn(C(C)C)c2n1 [CR8]
- effects on Timothy syndrome cardiomyocytes (spontaneous beating rate, contraction irregularity) [1]: beneficial effects

Compound: COc1ccc(CNc2nc(NCc3ccc(OC)cc3)c3ncn(C4CCCCC4)c3n2)cc1 [Myoseverin B]
- effects on Timothy syndrome cardiomyocytes (spontaneous beating rate, contraction irregularity) [1]: beneficial effects

Compound: CC(C)CC(=O)Nc1[nH]nc2c1CN(C(=O)C1CCN(C)CC1)C2(C)C [PHA-793887]
- effects on Timothy syndrome cardiomyocytes (spontaneous beating rate, contraction irregularity) [1]: beneficial effects
- luminescence signal (phosphorylation of substrate by CDK5) (CDK5/p35): reduced; also recorded: blocked the phosphorylation

Compound: CC[C@H](CO)Nc1nc(NCc2ccccc2)c2ncn(C(C)C)c2n1 [Roscovitine]
- voltage-dependent inactivation of Cav1.2 with Timothy syndrome mutation [2]: enhance the voltage-dependent inactivation
- cardiac phenotypes of TS cardiomyocytes [3]: rescue the cardiac phenotypes
- voltage-dependent inactivation of Cav1.2 (Cav1.2 channels): did not further enhance; also recorded: did not significantly enhance

Compound: COc1cc(N)c(Cl)cc1C(=O)NC1CCN(CCCOc2ccc(F)cc2)CC1OC (centres unmarked) [cisapride]
- side effect [4]: QT prolongation
